{
  "source": "patent US20080306057A1",
  "about": "“P13K Inhibitors for the Treatment of Endometriosis” (LABORATORIES SERONO SA, priority 2005, published 2008)",
  "key": {"[1]": {"test_system": "endometriosis", "details": "cited from earlier work"}, "[2]": {"test_system": "endometriotic cells (12Z cells)", "test": "Induction of cell death in endometriotic cells, crystal violet staining", "type": "cell-based, human", "details": "for EC50: Homo sapiens, 12Z, crystal violet staining", "text": "It is well established that the glandular and stromal tissues from the eutopic endometrium implant in ectopic sites leading to endometriosis. Survival of the ectopic implants is due to a reduced cell death (apoptosis) of these implants, and is presumed to be due to increased expression of survival cell signaling pathways. Proteins or specific small molecule compounds that induce target-specific cell-death of ectopic endometriotic cells without affecting eutopic endometrium or other normal cells could be used as a treatment for eliminating endometriosis. In this regard, we examined the effect of PI3K inhibitor-1 (5-Quinoxalin-6-ylmethylene-thiazolidine-2,4-dione) on its ability to induce cell death of endometriotic cells (12Z cells), an immortalized human epithelial endometriotic cell (Zeitvogel et al. 2001). These cells grow in culture and secrete cytokines in response to TNFα that have been reported to be elevated in the peritoneal fluid of endometriotic patients. The 12Z cells were treated with PI3K inhibitor-1 for 24 h and cell death was measured by crystal violet staining. Since the peritoneal fluids contain elevated concentrations of TNFα, the inhibitor was also tested in the presence of this cytokine. Dead cells get detached from the tissue culture plate and washed away during staining with crystal violet. The intensity of the color will determine the extent of live cells present in the plate. […] TNFα alone had no effect of cell viability (data not shown)."}, "[3]": {"test_system": "endometriosis-like foci", "test": "Rat model of endometriosis (autologous uterine horn fragment transplant)", "type": "in vivo", "description": "Endometriosis was induced in rats as described earlier (D'Antonio et al 2000). In brief, autologous uterine horn fragment was transplanted onto the inner surface of the abdominal wall in rat. Three weeks following transplantation, the size and the viability of the engrafted tissue was measured. One week after the confirmation of the tissue attachment, treatments were started. The control group received the vehicle, the PI3K inhibitor-1 was administered orally (po) at a single dose of 30 mg/kg per day. Treatment with the inhibitor was conducted for nine days, animals were anaesthetized 2 hr following the last treatment and blood samples were collected. Surface area of the endometriosis-like foci was measured. The endometriotic-like foci was removed for histology."}, "[4]": {"test_system": "endometriotic lesions from human endometrial tissue", "test": "Xenograft nude mouse model of endometriosis", "type": "in vivo, nude mice", "description": "Human endometrial tissue was injected in ovarectomized nude mice to establish the disease (Bruner-Tran et al. 2002). In brief, endometrial biopsies obtained from normal volunteers or from endometriotic patients were cut into small pieces and cultured in the presence of estradiol for 24 h. Treated tissues, were injected either subcutaneously or intraperitoneally into ovarectomized nude mice with estradiol implant. Within 2-4 days of injection, ectopic endometriotic lesions develop in animals. Treatment with either progesterone or PI3K inhibitor-1 was started 10 days following the injection of tissue. The compound was administered at a dose of 10 mg/kg and 30 mg/kg/animal for 28 days. […] Following the completion of treatment, animals were sacrificed, lesions developed from the transplanted tissue found in both subcutaneous and intraperitoneal sites, were measured (both size and number)."}, "[5]": {"details": "10 mg/kg × 28 days, listed as PI3K inhibitor"}, "[6]": {"details": "30 mg/kg × 28 days, listed as PI3K inhibitor"}},
  "note": "Like-named read-outs stand apart in the source and are kept apart here.",
  "data": [
    {"compound": "C#C[C@]1(O)CC[C@H]2[C@@H]3CCC4=Cc5oncc5C[C@]4(C)[C@H]3CC[C@@]21C", "note": "[Danazol]", "values": [
      {"measurement": "Recurrence rate", "setting": "[1]; after up to 4 years", "value": "40%-50"},
      {"measurement": "Patients suffering from pain with improved symptoms", "setting": "[1]; endometriosis patients", "value": "66-100%"}
    ]},
    {"compound": "TNFα", "values": [
      {"measurement": "Cell viability", "setting": "[2]; TNFα alone, data not shown", "value": "no effect"}
    ]},
    {"compound": "antide [reference compound]", "values": [
      {"measurement": "Regression of established endometriotic lesions", "setting": "[3]; for comparison, data not shown", "value": 94, "unit": "%"}
    ]},
    {"compound": "O=C1NC(=O)C(=Cc2ccc3nccnc3c2)S1", "note": "[PI3K inhibitor-1, 5-Quinoxalin-6-ylmethylene-thiazolidine-2,4-dione]", "values": [
      {"measurement": "Extent of cell death induced, with versus without TNFα", "setting": "[2]; 24 h", "value": "greater in the presence of TNFα"},
      {"measurement": "Amount of live cells in culture", "setting": "[2]; 24 h, either alone or in the presence of TNFα", "value": "reduce the amount of live cells in culture"},
      {"measurement": "EC50", "setting": "[2]; in the presence of 15 ng/ml of TNFα, 24 h, read-out: Concentration required to induce 50% cell death (EC50), +TNFα", "value": 6.4, "unit": "µM"},
      {"measurement": "EC50", "setting": "[2]; inhibitor alone, 24 h, read-out: Concentration required to induce 50% cell death (EC50), Alone", "value": "> 10", "unit": "µM"},
      {"measurement": "Regression of established endometriotic lesions", "setting": "[3]; 30 mg/kg per day po, nine days", "value": 64, "unit": "%"},
      {"measurement": "Effect on the uterine weight and size of the animals", "setting": "[4]; 10 mg/kg and 30 mg/kg for 28 days", "value": "no effect"},
      {"measurement": "Lesion (% Progesterone) Compared to progesterone treated group, decrease", "setting": "[4]; 10 mg/kg × 28 days", "value": 53, "unit": "% Decrease"},
      {"measurement": "Lesion size, decrease", "setting": "[4]; 10 mg/kg × 28 days", "value": 10, "unit": "% Decrease"},
      {"measurement": "Lesion (% Progesterone) Compared to progesterone treated group, decrease", "setting": "[4]; [5]", "value": 53, "unit": "%"},
      {"measurement": "Lesion size, decrease", "setting": "[4]; [5]", "value": 10, "unit": "%"},
      {"measurement": "Lesion (% Progesterone) Compared to progesterone treated group, decrease", "setting": "[4]; 30 mg/kg × 28 days", "value": 80, "unit": "% Decrease"},
      {"measurement": "Lesion size, decrease", "setting": "[4]; 30 mg/kg × 28 days", "value": 30, "unit": "% Decrease"},
      {"measurement": "Lesion (% Progesterone) Compared to progesterone treated group, decrease", "setting": "[4]; [6]", "value": 80, "unit": "%"},
      {"measurement": "Lesion size, decrease", "setting": "[4]; [6]", "value": 30, "unit": "%"}
    ]}
  ]
}
